Laboratory results: patent publication US20250129021A1, “SMALL MOLECULE PROTEIN SYNTHESIS MODULATORS” (Interdict Bio, Inc., priority 2023, published 2025)

Assays:
Assay type in all cases: biochemical
NFKB1 = experiment: In vitro transcription-translation (IVTT) assay, NFKB1 reporter; details: HeLa S3 lysate, sfGFP/mCherry ratio
Procedure: In vitro transcription-translation assay setup: Each assay includes a master mix containing lysate and shared components, a 96-well plate containing compound titrations for testing, a 96-well DNA plate with reporter constructs to be tested, 96-well skirted PCR plates, and 96-well flat-bottom, black, fluorescent assay plates. Reaction materials setup: (A) Master mix—15 mL conical tube (3 mL of HeLa S3 Lysate described above; 0.6 mL of ThermoFisher Accessory Proteins (#88882); 1.2 ml of ThermoFisher Reaction Mix (#88882); 0.54 mL of nuclease-free Water); (B) 96-Well Master Mix+Compound Plate (Half-log dilutions (30 μM−0.1 μM) of 4 compounds of interest are prepared in 100% DMSO); 96-Well DNA Plate (Five DNA constructs are plated into single columns within the plate. Row 1 of the column contains nuclease free H2O, all other wells contain 110 ng/μL plasmid DNA). Reactions are started by mixing 155 μL of master mix and 3.5 μL of compound serial dilutions, then 9.1 μL of master mix+compound mixture is aliquoted across 5 96-well plates. Reactions begin with final addition of 2 μL of DNA for a 11.1 μL reaction volume in each well. The entire plate is sealed, and incubated for 2 hrs at 30° C. After 2 hrs, quench the assay using 45 μL of PBS, and transfer 50 μL to a flat-bottom black microplate Quantify the sfGFP and mCherry signals from each well on each plate, taking 3 reads of each plate, and perform data analysis below.
In vitro transcription-translation assay data analysis: Each plate is read three times in channels for both sfGFP and mCherry signals. The average signal across these 3 reads is then calculated for further analysis. Control wells containing no DNA reporter are subtracted from reporter wells in the same column to remove auto-fluorescence of the lysate. Then, the ratio of sfGFP/mCherry is calculated per well, and these ratios are averaged across the triplicate experiments on the same plate. Finally, the ratio of each titration concentration is normalized to the no drug control to create the normalized stalling metric. The error on this measurement is determined by propagating error through the averaging and normalization steps. Values are plotted and fit for IC50 determination for each test sequence and titration of compound.

MYC = experiment: In vitro transcription-translation (IVTT) assay, MYC reporter; details: IVTT assay, HeLa S3 lysate, MYC reporter, normalized sfGFP/mCherry ratio; half-log dilutions 30 μM-0.1 μM, 2 hrs at 30° C.
Summary of the method: (§1)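 Reporter: mCherry, P2A, then 3×FLAG-target peptide-sfGFP fusion, IRES-initiated; HeLa S3 lysate IVTT; cpd dilutions 30 μM−0.1 μM half-log in 100% DMSO (dilution-plate conc); DNA added last; 2 h, 30° C; PBS quench.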

CCND1 = experiment: In vitro transcription-translation (IVTT) assay, CCND1 reporter; details: IVTT assay, HeLa S3 lysate, sfGFP/mCherry ratio
Summary of the method: as §1

| Compound | IC50 (NFKB1) [µM] | IC50 (MYC) [µM] | IC50 (CCND1) [µM] |
| --- | --- | --- | --- |
| O=C(NCC[C@H]1CCNC[C@H]1F)O[C@@H]1[C@@H](O)CN[C@@H]1Cc1ccc(-c2cnco2)cc1 [V192897, (2R,3S,4S)-4-hydroxy-2-{[4-(1,3-oxazol-5-yl)phenyl]methyl}pyrrolidin-3-yl N-{2-[(3S,4R)-3-fluoropiperidin-4-yl]ethyl}carbamate] | < 10 | < 10 | 10 to 20 |
| O=C(NCc1cccc(F)c1)O[C@@H]1[C@@H](O)CN[C@@H]1Cc1ccc(-c2nncs2)cc1 [V192411, (2R,3S,4S)-4-hydroxy-2-{[4-(1,3,4-thiadiazol-2-yl)phenyl]methyl}pyrrolidin-3-yl N-[(3-fluorophenyl)methyl]carbamate] | < 10 | < 10 | < 10 |
| O=C(NCc1cccc(F)c1)O[C@@H]1[C@@H](O)CN[C@@H]1Cc1ccc(-c2ccns2)cc1 [V192324, (2R,3S,4S)-4-hydroxy-2-{[4-(1,2-thiazol-5-yl)phenyl]methyl}pyrrolidin-3-yl N-[(3-fluorophenyl)methyl]carbamate] | < 10 | < 10 | < 10 |
| O=C(NCc1cccc(F)c1)O[C@@H]1[C@@H](O)CN[C@@H]1Cc1ccc(-c2cnns2)cc1 [V192319, (2R,3S,4S)-4-hydroxy-2-{[4-(1,2,3-thiadiazol-5-yl)phenyl]methyl}pyrrolidin-3-yl N-[(3-fluorophenyl)methyl]carbamate] | < 10 | < 10 | < 10 |
| (2R,3S,4S)-2-(2,1,3-benzoxadiazol-5-ylmethyl)-4-hydroxypyrrolidin-3-ylN-[(3-fluorophenyl)methyl]carbamate [V192383] | < 10 | < 10 | < 10 |
| O=C(NCC[C@@H]1C[C@H](F)CN1)O[C@@H]1[C@@H](O)CN[C@@H]1Cc1ccc(-c2cnco2)cc1 [V192917, (2R,3S,4S)-4-hydroxy-2-{[4-(1,3-oxazol-5-yl)phenyl]methyl}pyrrolidin-3-yl N-{2-[(2R,4S)-4-fluoropyrrolidin-2-yl]ethyl}carbamate] | < 10 | < 10 | < 10 |
| O=C(NCCSC(F)(F)F)O[C@@H]1[C@@H](O)CN[C@@H]1Cc1ccc(-c2cnco2)cc1 [V192442, (2R,3S,4S)-4-hydroxy-2-{[4-(1,3-oxazol-5-yl)phenyl]methyl}pyrrolidin-3-yl N-{2-[(trifluoromethyl)sulfanyl]ethyl}carbamate] | < 10 | < 10 | < 10 |
| O=C(NCc1cccc(F)c1)O[C@@H]1[C@@H](O)CN[C@@H]1Cc1ccc(-c2ccc3nonc3c2)cc1 [V192385, (2R,3S,4S)-2-{[4-(2,1,3-benzoxadiazol-5-yl)phenyl]methyl}-4-hydroxypyrrolidin-3-yl N-[(3-fluorophenyl)methyl]carbamate] | < 10 | < 10 | < 10 |
| O=C(NCc1cccc(F)c1)O[C@@H]1[C@@H](O)CN[C@@H]1Cc1ccc(-c2cn3cc(C(F)(F)F)nc3s2)cc1 [V192874, (2R,3S,4S)-4-hydroxy-2-({4-[6-(trifluoromethyl)imidazo[2,1-b][1,3]thiazol-2-yl]phenyl}methyl)pyrrolidin-3-yl N-[(3-fluorophenyl)methyl]carbamate] | < 10 | < 10 | < 10 |
| O=C(NCC[C@H]1CCNCC1(F)F)O[C@@H]1[C@@H](O)CN[C@@H]1Cc1ccc(-c2cnco2)cc1 [V192894, (2R,3S,4S)-4-hydroxy-2-{[4-(1,3-oxazol-5-yl)phenyl]methyl}pyrrolidin-3-yl N-{2-[(4R)-3,3-difluoropiperidin-4-yl]ethyl}carbamate] | < 10 | < 10 | < 10 |
| O=C(NCCC12CNC(C1)C2)O[C@@H]1[C@@H](O)CN[C@@H]1Cc1ccc(-c2cnco2)cc1 [V192849, (2R,3S,4S)-4-hydroxy-2-{[4-(1,3-oxazol-5-yl)phenyl]methyl}pyrrolidin-3-yl N-(2-{2-azabicyclo[2.1.1]hexan-4-yl}ethyl)carbamate] | < 10 | < 10 | < 10 |
| C[C@H]1CC[C@@H](CCNC(=O)O[C@@H]2[C@@H](O)CN[C@@H]2Cc2ccc(-c3cnco3)cc2)N1 [V192850, (2R,3S,4S)-4-hydroxy-2-{[4-(1,3-oxazol-5-yl)phenyl]methyl}pyrrolidin-3-yl N-{2-[(2S,5S)-5-methylpyrrolidin-2-yl]ethyl}carbamate] | < 10 | < 10 | < 10 |
| O=C(NCc1cccc(F)c1)O[C@@H]1[C@@H](O)CN[C@@H]1Cc1ccc(-c2cn3ccnc3s2)cc1 [V192127, (2R,3S,4S)-4-hydroxy-2-[(4-{imidazo[2,1-b][1,3]thiazol-2-yl}phenyl)methyl]pyrrolidin-3-yl N-[(3-fluorophenyl)methyl]carbamate] | < 10 | < 10 | < 10 |
| O=C(NCc1cc(F)c(O)c(F)c1)O[C@@H]1[C@@H](O)CN[C@@H]1Cc1ccc(-c2cnco2)cc1 [V192433, (2R,3S,4S)-4-hydroxy-2-{[4-(1,3-oxazol-5-yl)phenyl]methyl}pyrrolidin-3-yl N-[(3,5-difluoro-4-hydroxyphenyl)methyl]carbamate] | < 10 | < 10 | < 10 |
| O=C(NCC[C@@H]1CC(F)CN1)O[C@@H]1[C@@H](O)CN[C@@H]1Cc1ccc(-c2cnco2)cc1 (stereo partly drawn) [V192916, (2R,3S,4S)-4-hydroxy-2-{[4-(1,3-oxazol-5-yl)phenyl]methyl}pyrrolidin-3-yl N-{2-[(2R)-4-fluoropyrrolidin-2-yl]ethyl}carbamate] | < 10 | < 10 | < 10 |
| O=C(NCc1cccc(F)c1)O[C@@H]1[C@@H](O)CN[C@@H]1Cc1ccc(OCF)cc1 [V190507, (2R,3S,4S)-2-(4-(fluoromethoxy)benzyl)-4-hydroxypyrrolidin-3-yl (3-fluorobenzyl)carbamate] | < 10 | < 10 | < 10 |
| O=C(NCc1cccc(OC(F)(F)F)c1)O[C@@H]1[C@@H](O)CN[C@@H]1Cc1ccc(-c2cnco2)cc1 [V192276, (2R,3S,4S)-4-hydroxy-2-{[4-(1,3-oxazol-5-yl)phenyl]methyl}pyrrolidin-3-yl N-{[3-(trifluoromethoxy)phenyl]methyl}carbamate] | < 10 | < 10 | < 10 |
| O=C(NCc1cnsc1)O[C@@H]1[C@@H](O)CN[C@@H]1Cc1ccc(-c2cnco2)cc1 [V192110, (2R,3S,4S)-4-hydroxy-2-(4-(oxazol-5-yl)benzyl)pyrrolidin-3-yl (isothiazol-4-ylmethyl)carbamate] | < 10 | < 10 | < 10 |
| O=C(NCc1cncc(N2CCC2)c1)O[C@@H]1[C@@H](O)CN[C@@H]1Cc1ccc(-c2cnco2)cc1 [V192286, (2R,3S,4S)-4-hydroxy-2-{[4-(1,3-oxazol-5-yl)phenyl]methyl}pyrrolidin-3-yl N-{[5-(azetidin-1-yl)pyridin-3-yl]methyl}carbamate] | < 10 | < 10 | < 10 |
| O=C(NCc1cccc(F)c1)O[C@@H]1[C@@H](O)CN[C@@H]1Cc1ccc(-c2cnco2)nc1 [V192862, (2R,3S,4S)-4-hydroxy-2-{[6-(1,3-oxazol-5-yl)pyridin-3-yl]methyl}pyrrolidin-3-yl N-[(3-fluorophenyl)methyl]carbamate] | < 10 | < 10 | < 10 |
| O=C(NCc1cccc(F)c1)O[C@@H]1[C@@H](O)CN[C@@H]1Cc1ccc(-c2cnc(C(F)F)s2)cc1 [V192310, (2R,3S,4S)-2-({4-[2-(difluoromethyl)-1,3-thiazol-5-yl]phenyl}methyl)-4-hydroxypyrrolidin-3-yl N-[(3-fluorophenyl)methyl]carbamate] | < 10 | < 10 | 10 to 20 |
| CNC1(c2cccc(CNC(=O)O[C@@H]3[C@@H](O)CN[C@@H]3Cc3ccc(-c4cnco4)cc3)c2)CC1 [V192289, (2R,3S,4S)-4-hydroxy-2-{[4-(1,3-oxazol-5-yl)phenyl]methyl}pyrrolidin-3-yl N-({3-[1-(methylamino)cyclopropyl]phenyl}methyl)carbamate] | < 10 | < 10 | < 10 |
